Test results from patent publication US6756359B2, “C12 modified erythromycin macrolides and ketolides having antibacterial activity” (Chiron Corporation, priority 2001, dated 2004).
Values after ≈ are worked out from the molar mass of the structure shown.

Columns and labels:
Experiment in all cases: Antibacterial activity in vitro, MIC by broth microdilution
[1] = tested on: S. epidermidis Step_14990; format: cell-based; details: unit assumed
Summary of the method: (§1)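 NCCLS microdilution; CAMHB; 2-fold series; 3×10^5–7×10^5 CFU/mL; 35° C., 18-24 h, ambient air except S. pneumoniae (5-10% CO2, lysed horse blood 2-5%). Endpoint: no visible growth.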

[2] = tested on: S. epidermidis Step_f50654 Pen S; format: cell-based; details: unit assumed
Summary of the method: as §1

E. coli Esco_25922 = format: cell-based; details: Table 3, Strain ID M: E. coli Esco_25922; unit assumed
Summary of the method: as §1

E. faecalis Enfa_29212 = format: cell-based; details: unit assumed
Summary of the method: as §1

S. pyogenes Stpy_8668 = format: cell-based
Summary of the method: as §1

H. influenzae Hain_49247 = format: cell-based, Haemophilus influenzae; details: unit assumed
Summary of the method: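 Visible-growth inhibition defined the MIC, obtained by NCCLS broth microdilution at 35° C. over 18-24 hours with a final inoculum of 3×10^5–7×10^5 CFU/mL.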

S. pneumoniae Stpn_49619 = format: cell-based, Streptococcus pneumoniae
Summary of the method: as §1

[3] = tested on: S. pneumoniae Stpn_Erm S 4297; format: cell-based, Streptococcus pneumoniae
Summary of the method: as §1

[4] = tested on: S. pneumoniae Stpn_Erm 6849; format: cell-based, Streptococcus pneumoniae; details: unit assumed
Summary of the method: as §1

[5] = tested on: S. pneumoniae Stpn_280-962 Pen S; format: cell-based, Streptococcus pneumoniae
Summary of the method: as §1

[6] = tested on: S. pneumoniae Stpn_Mef S 3427; format: cell-based, Streptococcus pneumoniae
Summary of the method: as §1

[7] = tested on: S. pneumoniae Stpn_Mef 5654; format: cell-based, Streptococcus pneumoniae; details: unit assumed
Summary of the method: as §1

[8] = tested on: S. pneumoniae Stpn_297-749 Pen R; format: cell-based, Streptococcus pneumoniae
Summary of the method: as §1

S. aureus Stau_29213 = format: cell-based; details: Table 5, Strain ID A: S. aureus Stau_29213; unit assumed
Summary of the method: as §1

[9] = Table 3, Strain ID A: S. epidermidis Step_14990
[10] = Table 3, Strain ID B: S. epidermidis Step_f50654 Pen S
[11] = Table 3, Strain ID C: E. faecalis Enfa_29212
[12] = Table 3, Strain ID L: H. influenzae Hain_49247
[13] = Table 3, Strain ID I: S. pneumoniae Stpn_Erm S 4297, unit assumed
[14] = Table 3, Strain ID H: S. pneumoniae Stpn_Erm 6849
[15] = Table 3, Strain ID G: S. pneumoniae Stpn_280-962 Pen S
[16] = Table 3, Strain ID K: S. pneumoniae Stpn_Mef S 3427, unit assumed
[17] = Table 3, Strain ID J: S. pneumoniae Stpn_Mef 5654
[18] = Table 3, Strain ID F: S. pneumoniae Stpn_297-749 Pen R
[19] = Table 5, Strain ID B: S. epidermidis Step_14990
[20] = Table 5, Strain ID C: S. epidermidis Step_f50654
[21] = Table 5, Strain ID D: E. faecalis Enfa_29212
[22] = Table 5, Strain ID E: S. pyogenes Stpy_8668
[23] = Table 5, Strain ID M: H. influenzae Hain_49247
[24] = Table 5, Strain ID F: S. pneumoniae Stpn_49619
[25] = Table 5, Strain ID J: S. pneumoniae Stpn_Erm S 4297, unit assumed
[26] = Table 5, Strain ID I: S. pneumoniae Stpn_Erm 6849
[27] = Table 5, Strain ID H: S. pneumoniae Stpn_280-962
[28] = Table 5, Strain ID L: S. pneumoniae Stpn_Mef S 3427, unit assumed
[29] = Table 5, Strain ID K: S. pneumoniae Stpn_Mef 5654
[30] = Table 5, Strain ID G: S. pneumoniae Stpn_297-749
[31] = Table 5, Strain ID J: S. pneumoniae Stpn_Erm S 4297

SMILES	MIC [1, 19]	MIC [2, 20]	MIC (S. aureus Stau_29213)	MIC (E. faecalis Enfa_29212; [21])	MIC (S. pyogenes Stpy_8668; [22])	MIC (H. influenzae Hain_49247; [23])	MIC (S. pneumoniae Stpn_49619; [24])	MIC [4, 26]	MIC [5, 27]	MIC [6, 28]	MIC [7, 29]	MIC [8, 30]	MIC [3, 31]	other results
CC[C@H]1OC(=O)[C@H](C)[C@@H](O[C@H]2C[C@@](C)(OC)[C@@H](O)[C@H](C)O2)[C@H](C)[C@@H](O[C@@H]2O[C@H](C)C[C@H](N(C)C)[C@H]2O)[C@](C)(OC)C[C@@H](C)C(=O)[C@H](C)[C@@H](O)[C@]1(C)O [Clar., clarithromycin, reference compound]	–	–	–	–	–	–	–	–	–	–	–	–	–	MIC [1, 9]: 0.2 µg/mL (≈ 0.267 µM); MIC [2, 10]: 0.2 µg/mL (≈ 0.267 µM); MIC (E. coli Esco_25922): 50 µg/mL (≈ 66.8 µM); MIC (E. faecalis Enfa_29212; [11]): 0.78 µg/mL (≈ 1.04 µM); MIC (S. pyogenes Stpy_8668; Table 3, Strain ID D: S. pyogenes Stpy_8668): ≦0.05; MIC (H. influenzae Hain_49247; [12]): 12.5 µg/mL (≈ 16.7 µM); MIC (S. pneumoniae Stpn_49619; Table 3, Strain ID E: S. pneumoniae Stpn_49619): ≦0.05; MIC [3, 13]: > 50 µg/mL; MIC [4, 14]: > 50 µg/mL; MIC [5, 15]: ≦0.05; MIC [6, 16]: 1.56 µg/mL (≈ 2.09 µM); MIC [7, 17]: 6.25 µg/mL (≈ 8.36 µM); MIC [8, 18]: ≦0.05
CC[C@H]1OC(=O)[C@H](C)C(=O)[C@H](C)[C@@H](O[C@@H]2O[C@H](C)C[C@H](N(C)C)[C@H]2O)[C@@](C)(OC)C[C@@H](C)C(=O)[C@H](C)[C@H]2NC(=O)O[C@@H]21 [Compound 4266]	–	–	–	–	–	–	–	–	–	–	–	–	–	MIC [1, 9]: 3.13 µg/mL (≈ 5.23 µM); MIC [2, 10]: 3.13 µg/mL (≈ 5.23 µM); MIC (E. coli Esco_25922): > 50 µg/mL; MIC (E. faecalis Enfa_29212; [11]): 1.56 µg/mL (≈ 2.61 µM); MIC (S. pyogenes Stpy_8668; Table 3, Strain ID D: S. pyogenes Stpy_8668, unit assumed): 0.1 µg/mL (≈ 0.167 µM); MIC (H. influenzae Hain_49247; [12]): 25 µg/mL (≈ 41.8 µM); MIC (S. pneumoniae Stpn_49619; Table 3, Strain ID E: S. pneumoniae Stpn_49619, unit assumed): 0.2 µg/mL (≈ 0.334 µM); MIC [3, 13]: > 50 µg/mL; MIC [4, 14]: > 50 µg/mL; MIC [5, 15]: ≦0.05; MIC [6, 16]: 0.1 µg/mL (≈ 0.167 µM); MIC [7, 17]: 0.2 µg/mL (≈ 0.334 µM); MIC [8, 18]: ≦0.05
CC[C@H]1OC(=O)[C@H](C)C(=O)[C@H](C)[C@@H](OC2O[C@H](C)C[C@H](N(C)C)[C@H]2O)[C@@](C)(OC)C[C@@H](C)C(=O)[C@H](C)[C@H]2N(CCCC(C)(C)n3cnc4cccnc43)C(=O)O[C@]12CC (stereo partly drawn) [Example 38, (3aS,4R,7R,9R,10R,11S,13R,15R,15aR)-3a,4-diethyl-1-[4-(3H-imidazol[4,5-b]pyridin-3-yl)-4-methylpentyl]-11-methoxy-7,9,11,13,15-pentamethyl-2,6,8,14-tetraoxotetradecahydro-2H-oxacyclotetradecino[4,3-d][1,3]oxazol-10-yl 3,4,6-trideoxy-3-(dimethylamino)-D-xylo-hexopyranoside]	0.2 µg/mL (≈ 0.242 µM)	0.2 µg/mL (≈ 0.242 µM)	0.2 µg/mL (≈ 0.242 µM)	0.1 µg/mL (≈ 0.121 µM)	≦0.05	6.25 µg/mL (≈ 7.55 µM)	≦0.05	0.4 µg/mL (≈ 0.483 µM)	≦0.05	0.1 µg/mL (≈ 0.121 µM)	0.78 µg/mL (≈ 0.942 µM)	≦0.05	–	MIC [3, 25]: 0.1 µg/mL (≈ 0.121 µM)
CC[C@H]1OC(=O)[C@@](C)(F)C(=O)[C@H](C)[C@@H](O[C@@H]2O[C@H](C)C[C@H](N(C)C)[C@H]2O)[C@@](C)(OC)C[C@@H](C)C(=O)[C@H](C)[C@H]2N(CCCC(C)(C)n3cnc4cccnc43)C(=O)O[C@]12CC [Example 40, (3aS,4R,7S,9R,10R,11S,13R,15R,15aR)-3a,4-diethyl-7-fluoro-1-[4-(3H-imidazo[4,5-b]pyridin-3-yl)-4-methylpentyl]-11-methoxy-7,9,11,13,15-pentamethyl-2,6,8,14-tetraoxotetradecahydro-2H-oxacyclotetradecino[4,3-d][1,3]oxazol-10-yl 3,4,6-trideoxy-3-(dimethylamino)-D-xylo-hexopyranoside]	0.2 µg/mL (≈ 0.236 µM)	0.2 µg/mL (≈ 0.236 µM)	0.2 µg/mL (≈ 0.236 µM)	0.1 µg/mL (≈ 0.118 µM)	≦0.05	6.25 µg/mL (≈ 7.39 µM)	≦0.05	0.2 µg/mL (≈ 0.236 µM)	≦0.05	0.2 µg/mL (≈ 0.236 µM)	0.78 µg/mL (≈ 0.922 µM)	≦0.05	≦0.05	–
C=C[C@]12OC(=O)N(CCCCn3cnc(-c4cccnc4)c3)[C@@H]1[C@@H](C)C(=O)[C@H](C)C[C@@](C)(OC)[C@H](OC1O[C@H](C)C[C@H](N(C)C)[C@H]1O)[C@@H](C)C(=O)[C@@H](C)C(=O)O[C@@H]2CC (stereo partly drawn) [Example 48, (3aS,4R,7R,9R,10R,11R,13R,15R,15aR)-4-ethyl-11-methoxy-7,9,11,13,15-pentamethyl-2,6,8,14-tetraoxo-1-[4-(4-pyridin-3-yl-1H-imidazol-1-yl)butyl]-3a-vinyltetradecahydro-2H-oxacyclotetradecino[4,3-d][1,3]oxazol-10-yl 3,4,6-trideoxy-3-(dimethylamino)-D-xylo-hexopyranoside]	0.2 µg/mL (≈ 0.243 µM)	0.2 µg/mL (≈ 0.243 µM)	0.2 µg/mL (≈ 0.243 µM)	0.1 µg/mL (≈ 0.121 µM)	≦0.05	3.13 µg/mL (≈ 3.8 µM)	≦0.05	0.4 µg/mL (≈ 0.485 µM)	≦0.05	0.1 µg/mL (≈ 0.121 µM)	0.78 µg/mL (≈ 0.947 µM)	≦0.05	≦0.05	–
C=C[C@]12OC(=O)N(CCCCn3cnc(-c4cccnc4)c3)[C@@H]1[C@@H](C)C(=O)[C@H](C)C[C@](C)(OC)[C@H](OC1O[C@H](C)C[C@H](N(C)C)[C@H]1O)[C@@H](C)C(=O)[C@](C)(F)C(=O)O[C@@H]2CC (stereo partly drawn) [Example 49, (3aS,4R,7S,9R,10R,11S,13R,15R,15aR)-4-ethyl-7-fluoro-11-methoxy-7,9,11,13,15-pentamethyl-2,6,8,14-tetraoxo-1-[4-(4-pyridin-3-yl-1H-imidazol-1-yl)butyl]-3a-vinyltetradecahydro-2H-oxacyclotetradecino[4,3-d][1,3]oxazol-10-yl 3,4,6-trideoxy-3-(dimethylamino)-D-xylo-hexopyranoside]	0.2 µg/mL (≈ 0.238 µM)	0.2 µg/mL (≈ 0.238 µM)	0.2 µg/mL (≈ 0.238 µM)	0.1 µg/mL (≈ 0.119 µM)	≦0.05	6.25 µg/mL (≈ 7.42 µM)	≦0.05	0.1 µg/mL (≈ 0.119 µM)	≦0.05	–	0.78 µg/mL (≈ 0.926 µM)	≦0.05	≦0.05	MIC ([6]; Table 5, Strain ID L: S. pneumoniae Stpn_Mef S 3427): ≦0.05
C=C[C@]12OC(=O)N(CCCC(C)(C)n3cnc(-c4cccnc4)c3)[C@@H]1[C@@H](C)C(=O)[C@H](C)C[C@](C)(OC)[C@H](OC1O[C@H](C)C[C@H](N(C)C)[C@H]1O)[C@@H](C)C(=O)[C@@H](C)C(=O)O[C@@H]2CC (stereo partly drawn) [Example 50, (3aS,4R,7R,9R,10R,11S,13R,15R,15aR)-4-ethyl-11-methoxy-7,9,11,13,15-pentamethyl-1-[4-methyl-4-(4-pyridin-3-yl-1H-imidazol-1-yl)pentyl]-2,6,8,14-tetraoxo-3a-vinyltetradecahydro-2H-oxacyclotetradecino[4,3-d][1,3]oxazol-10-yl 3,4,6-trideoxy-3-(dimethylamino)-D-xylo-hexopyranoside]	0.4 µg/mL (≈ 0.469 µM)	0.2 µg/mL (≈ 0.235 µM)	0.4 µg/mL (≈ 0.469 µM)	0.2 µg/mL (≈ 0.235 µM)	≦0.05	6.25 µg/mL (≈ 7.33 µM)	≦0.05	0.1 µg/mL (≈ 0.117 µM)	≦0.05	0.1 µg/mL (≈ 0.117 µM)	0.4 µg/mL (≈ 0.469 µM)	≦0.05	≦0.05	–
C/C=C\[C@]12OC(=O)N(CCCCn3cnc(-c4cccnc4)c3)[C@@H]1[C@@H](C)C(=O)[C@H](C)C[C@](C)(OC)[C@H](O[C@@H]1O[C@H](C)C[C@H](N(C)C)[C@H]1O)[C@@H](C)C(=O)[C@](C)(F)C(=O)O[C@@H]2CC [Example 66, (3aS,4R,7S,9R,10R,11S,13R,15R,15aR)-4-ethyl-7-fluoro-11-methoxy-7,9,11,13,15-pentamethyl-2,6,8,14-tetraoxo-3a-[(1Z)-prop-1-enyl]-1-[4-(4-pyridin-3-yl-1H-imidazol-1-yl)butyl]tetradecahydro-2H-oxacyclotetradecino[4,3-d][1,3]oxazol-10-yl 3,4,6-trideoxy-3-(dimethylamino)-D-xylo-hexopyranoside]	0.2 µg/mL (≈ 0.234 µM)	0.2 µg/mL (≈ 0.234 µM)	0.2 µg/mL (≈ 0.234 µM)	0.01 µg/mL (≈ 0.0117 µM)	≦0.05	6.25 µg/mL (≈ 7.3 µM)	≦0.05	0.2 µg/mL (≈ 0.234 µM)	≦0.05	0.1 µg/mL (≈ 0.117 µM)	0.4 µg/mL (≈ 0.467 µM)	≦0.05	–	MIC [3, 25]: 0.1 µg/mL (≈ 0.117 µM)
